US9040525B2, “Cyclic amide derivative” (MOCHIDA PHARMACEUTICAL CO., LTD., priority 2010, dated 2015)
pEC50: −log10 of the molar value.

Biological target: T1, GPR40 of human origin (Homo sapiens, UniProt O14842)
T1 construct: expressed in transfected cells
Assay: Agonist action on GPR40 of human origin (Ca2+ fluorescence, CHO cell strain stably expressing GPR40)
Assay type: cell-based
Settings: fluctuation of Ca2+ concentration
Method: A CHO cell strain stably expressing GPR40 of human origin was used to determine the agonist action of a title compound. This cell strain was seeded in a clear bottom 96 well plate at 2×10^4 cells/100 μL/well. The cell strain was cultured in a CO2 incubator overnight using a Ham's F-12 medium containing a 10% fetal bovine serum, 100 U/mL penicillin, 0.1 mg/mL streptomycin, and 400 μg/mL. Geneticin. Calcium 4 Assay Kit (Molecular Devices) was used as a fluorescent calcium indicator. One mL of 77 mg/mL probenecid (Invitrogen) was added to 100 mL of a calcium indicator solution to prepare a solution (loading solution) mixed with a 20 mM HEPES-containing Hanks' balanced salt solution (HBSS) in equal proportions. To the cells from which the culture solution was removed, 200 μL of the loading solution was added, and the cells were cultured in a CO2 incubator for 1 hour. The title compound was diluted with a 20 mM HEPES-containing HBSS and was added to the cells by 50 μL, and the fluctuation of the Ca^2+concentration was measured by an intracellular ion analyzer. The EC50 value of the title compound was calculated using the dose-response curve of fluorescence intensity variation.

T1 sequence (O14842 whole entry): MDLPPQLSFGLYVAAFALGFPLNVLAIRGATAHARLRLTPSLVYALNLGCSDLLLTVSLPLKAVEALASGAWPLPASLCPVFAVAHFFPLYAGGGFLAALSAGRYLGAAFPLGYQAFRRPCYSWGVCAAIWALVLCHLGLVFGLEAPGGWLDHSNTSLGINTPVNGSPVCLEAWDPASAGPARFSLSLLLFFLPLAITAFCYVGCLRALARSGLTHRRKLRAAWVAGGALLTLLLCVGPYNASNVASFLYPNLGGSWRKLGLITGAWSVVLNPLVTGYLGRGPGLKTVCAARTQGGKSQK

## Cc1cc(OCCC(C)(C)O)nc(C)c1-c1cccc(COc2ccc(C3CC(=O)NS(=O)(=O)C3)cc2)c1 (stereo not shown) [Example 35, 5-[4-[[3-[6-(3-hydroxy-3-methylbutoxy)-2,4-dimethylpyridin-3-yl]phenyl]methoxy]phenyl]-1,1-dioxo-1,2-thiazinan-3-one]
  pEC50: > 6.52
